In US20190134000A1, “COMPOUNDS TO PROMOTE NORMAL PROCESSING OF APP” (Buck Institute for Research on Aging, priority 2016, published 2019):

Legend:
CYP2C19 = CYP2C19 (Homo sapiens, UniProt P33261); experiment: CYP inhibition screen CYP2C19; type: in vitro ADME
sAPPα in SH-SY5Y cells = experiment: Primary screen, effect on sAPPα in SH-SY5Y cells (AlphaLISA); type: cell-based, human; details: ↑ increase
From the text: (§1) Compound C41 was initially identified by screening a library of compounds in a series of steps. First compounds were screened in a primary screen to determine the effect on sAPPα in SH-SYSY cells (see, e.g., FIG. 4). Compounds that elicited an increase in sAPPα of at least 10% were subjected to a secondary screen in CHO-7W cells for their effect on sAPPα and Aβ (see, e.g., FIG. 5).

S9 stability, human = type: in vitro ADME
5-HT3 = target: T1, 5-HT3 (Homo sapiens, UniProt P46098); experiment: Target binding 5-HT3
T1 sequence (P46098 24-478): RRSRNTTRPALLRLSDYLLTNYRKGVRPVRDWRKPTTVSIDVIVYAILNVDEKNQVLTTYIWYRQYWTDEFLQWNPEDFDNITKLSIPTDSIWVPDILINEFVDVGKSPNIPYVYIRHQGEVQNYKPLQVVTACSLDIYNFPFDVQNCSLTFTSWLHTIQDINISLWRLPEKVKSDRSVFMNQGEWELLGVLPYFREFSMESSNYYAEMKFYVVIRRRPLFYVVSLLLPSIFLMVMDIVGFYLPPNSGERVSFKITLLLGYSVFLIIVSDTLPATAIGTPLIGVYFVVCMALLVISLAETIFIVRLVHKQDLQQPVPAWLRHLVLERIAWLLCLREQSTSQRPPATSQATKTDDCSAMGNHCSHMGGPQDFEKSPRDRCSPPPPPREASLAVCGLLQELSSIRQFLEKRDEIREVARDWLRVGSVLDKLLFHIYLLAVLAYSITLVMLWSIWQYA

S9 stability, mouse = type: in vitro ADME
S9 stability, dog = type: in vitro ADME
hERG receptor = hERG receptor (Homo sapiens, UniProt Q12809); type: binding
CYP1A2 = target: T2, CYP1A2 (Homo sapiens, UniProt P05177); experiment: CYP inhibition screen CYP1A2; type: in vitro ADME
T2 sequence (P05177 1-516): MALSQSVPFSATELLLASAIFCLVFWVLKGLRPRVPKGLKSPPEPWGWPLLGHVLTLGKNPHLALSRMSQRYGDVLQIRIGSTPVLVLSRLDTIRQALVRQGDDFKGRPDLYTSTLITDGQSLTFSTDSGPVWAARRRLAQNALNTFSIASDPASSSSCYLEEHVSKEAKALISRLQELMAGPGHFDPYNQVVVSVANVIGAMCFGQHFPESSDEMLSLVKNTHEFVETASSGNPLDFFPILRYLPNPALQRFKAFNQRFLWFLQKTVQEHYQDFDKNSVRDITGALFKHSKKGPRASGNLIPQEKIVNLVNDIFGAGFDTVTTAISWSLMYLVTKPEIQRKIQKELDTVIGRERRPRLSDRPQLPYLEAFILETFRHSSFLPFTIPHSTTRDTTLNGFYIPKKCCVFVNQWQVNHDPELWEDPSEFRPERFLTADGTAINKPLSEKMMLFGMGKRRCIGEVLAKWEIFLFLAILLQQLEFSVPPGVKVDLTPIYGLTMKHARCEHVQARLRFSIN

[1] = system: sAPPα, Aβ1-42 in CHO-7W cells; experiment: Secondary screen, sAPPα and Aβ in CHO-7W cells; type: cell-based
From the text: as §1

α7 = α7 (Homo sapiens, UniProt P36544); experiment: Target binding α7
AD model mice = experiment: Oral efficacy studies in mice; type: in vivo
From the text: Thus, C41 was identified as a good new chemical entity (NCE) based on the testing. In particular C41 in vitro and in vivo profile met the advancement criteria in SH-SYSY and CHO-7W in vitro screens.

Sequence of CYP2C19 (P33261 whole entry): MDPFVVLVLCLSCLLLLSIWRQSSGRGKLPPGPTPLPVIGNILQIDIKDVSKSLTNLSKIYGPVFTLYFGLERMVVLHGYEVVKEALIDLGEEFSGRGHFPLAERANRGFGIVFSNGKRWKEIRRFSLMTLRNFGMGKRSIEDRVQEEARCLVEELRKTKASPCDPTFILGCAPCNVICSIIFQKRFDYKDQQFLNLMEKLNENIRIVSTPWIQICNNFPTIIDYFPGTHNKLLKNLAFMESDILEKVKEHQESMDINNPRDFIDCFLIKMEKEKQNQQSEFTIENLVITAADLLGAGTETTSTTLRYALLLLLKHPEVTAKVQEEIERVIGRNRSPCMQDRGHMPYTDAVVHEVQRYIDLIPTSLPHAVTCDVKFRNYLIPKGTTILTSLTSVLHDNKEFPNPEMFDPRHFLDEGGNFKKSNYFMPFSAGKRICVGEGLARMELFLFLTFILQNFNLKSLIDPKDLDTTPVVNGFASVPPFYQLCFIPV
Sequence of hERG receptor (Q12809 whole entry): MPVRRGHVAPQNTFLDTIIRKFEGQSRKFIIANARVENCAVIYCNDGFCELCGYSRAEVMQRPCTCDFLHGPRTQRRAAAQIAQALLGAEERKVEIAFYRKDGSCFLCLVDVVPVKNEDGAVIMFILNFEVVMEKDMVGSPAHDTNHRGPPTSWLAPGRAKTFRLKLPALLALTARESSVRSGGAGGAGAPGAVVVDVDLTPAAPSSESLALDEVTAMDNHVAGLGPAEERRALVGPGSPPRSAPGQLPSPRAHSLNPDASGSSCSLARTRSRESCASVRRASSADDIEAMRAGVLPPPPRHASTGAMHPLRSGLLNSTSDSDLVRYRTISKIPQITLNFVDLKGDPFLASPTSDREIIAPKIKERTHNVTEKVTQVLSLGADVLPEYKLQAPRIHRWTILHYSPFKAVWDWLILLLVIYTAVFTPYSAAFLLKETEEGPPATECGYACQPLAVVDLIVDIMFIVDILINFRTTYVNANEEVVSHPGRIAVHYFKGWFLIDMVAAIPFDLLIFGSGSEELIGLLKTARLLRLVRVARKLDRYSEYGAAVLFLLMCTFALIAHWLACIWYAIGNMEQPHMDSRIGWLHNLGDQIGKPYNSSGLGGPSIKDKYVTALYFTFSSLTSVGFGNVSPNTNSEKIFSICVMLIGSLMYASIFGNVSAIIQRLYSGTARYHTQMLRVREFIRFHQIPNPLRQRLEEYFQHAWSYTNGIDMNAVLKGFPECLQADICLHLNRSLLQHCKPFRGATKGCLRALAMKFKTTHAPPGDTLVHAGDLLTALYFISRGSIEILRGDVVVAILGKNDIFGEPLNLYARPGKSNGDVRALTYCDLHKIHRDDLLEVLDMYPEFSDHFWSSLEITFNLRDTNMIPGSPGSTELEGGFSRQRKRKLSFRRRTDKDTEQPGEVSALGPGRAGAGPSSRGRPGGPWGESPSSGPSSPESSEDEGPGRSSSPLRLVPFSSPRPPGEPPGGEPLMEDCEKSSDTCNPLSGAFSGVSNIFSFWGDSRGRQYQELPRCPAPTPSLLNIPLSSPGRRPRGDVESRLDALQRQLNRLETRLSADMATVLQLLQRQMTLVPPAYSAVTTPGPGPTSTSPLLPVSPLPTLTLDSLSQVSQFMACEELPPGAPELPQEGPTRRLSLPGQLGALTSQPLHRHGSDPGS
Sequence of α7 (P36544 23-502): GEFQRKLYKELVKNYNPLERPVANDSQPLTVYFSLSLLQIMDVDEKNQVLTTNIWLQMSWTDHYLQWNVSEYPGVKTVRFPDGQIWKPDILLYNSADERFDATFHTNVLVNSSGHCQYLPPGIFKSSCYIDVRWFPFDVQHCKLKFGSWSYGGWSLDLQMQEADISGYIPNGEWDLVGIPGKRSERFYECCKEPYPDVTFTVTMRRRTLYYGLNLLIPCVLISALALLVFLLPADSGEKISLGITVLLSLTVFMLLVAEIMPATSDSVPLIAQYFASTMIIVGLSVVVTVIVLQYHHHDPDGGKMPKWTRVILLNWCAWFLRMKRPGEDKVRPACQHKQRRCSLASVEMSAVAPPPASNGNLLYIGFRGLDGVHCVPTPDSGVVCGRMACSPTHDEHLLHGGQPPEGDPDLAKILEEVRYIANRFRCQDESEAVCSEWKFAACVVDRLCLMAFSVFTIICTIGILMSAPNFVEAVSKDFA

CN1[C@@H]2CC[C@H]1C[C@@H](OC(=O)c1c[nH]c3cc(F)ccc13)C2 [Compound C41, (1R,3R,5S)-8-methyl-8-azabicyclo[3.2.1]octan-3-yl 6-fluoro-1H-indole-3-carboxylate]
IC50 (CYP2C19): > 30 µM
inhibition at 10 µM (CYP2C19; human): 0%
inhibition at 30 µM (CYP2C19; human): 0%
Primary Screen (SH-SY5Y) sAPPα (sAPPα in SH-SY5Y cells): ↑~20%
Metabolic Half-Life Human S9 (S9 stability, human): >1 h
half-life (S9 stability, human): > 1 h
Kd (5-HT3): ~0.003 µM
Target 5-HT3 (5-HT3; target binding): 5 nM
Metabolic Half-Life Mouse S9 (S9 stability, mouse): >1 h
half-life (S9 stability, mouse): > 1 h
half-life (S9 stability, dog): 0.668 h
binding to hERG receptor (hERG receptor): no binding
IC50 (CYP1A2): > 30 µM
inhibition at 10 µM (CYP1A2; human): 0.35%
inhibition at 30 µM (CYP1A2; human): 0.33%
Secondary Screen (CHO-7W) sAPPα ([1]; ↑ increase): ↑>20%
Secondary Screen (CHO-7W) sAppα/Aβ ([1]; ↑ increase of ratio): ↑>50%
Secondary Screen (CHO-7W) Aβ1-42 ([1]; ↓ decrease): ↓>20%
Target α7 (α7): 1100 nM
efficacy in dose-response studies (AD model mice; mice): Efficacy was seen
efficacy in 4-week standard oral study (AD model mice; mice, oral, 4 weeks): Efficacy was seen
efficacy in 12-week study (AD model mice; old AD model mice with advanced pathology): efficacy was seen
